Results: PubChem BioAssay AID1919017 (Molecular Pharmacology Branch, DTP, NCI, 2023)

Test system: SW1271 complex spheroids with HUVEC/MSC, growth, % test/control
Test: Anticancer human tumor SW1271 cell line growth inhibition [AhR];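 further: spheroids exposed to agents for 7 days before readout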
Conditions: for IC50: curve of first compound; for viability, T/C: stronger effect = lower value
Method in brief: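 Complex tumor spheroids co-cultured with HUVEC and human MSC stroma; AhR antagonists tested in combination with standard-of-care and investigational agents. Top concentration at or near clinical Cmax (else 10 microM), half-log dilutions; growth expressed as percent test/control.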

[1] = second compound 0.1 µM, first compound 0.0316 µM
[2] = second compound 0.1 µM, first compound 0.1 µM
[3] = second compound 0.1 µM, first compound 0.316 µM
[4] = second compound 0.1 µM, first compound 1 µM
[5] = second compound 0.1 µM, first compound 3.16 µM
[6] = second compound 0.1 µM, first compound 10 µM
[7] = second compound 0.316 µM, first compound 0.0316 µM
[8] = second compound 0.316 µM, first compound 0.1 µM
[9] = second compound 0.316 µM, first compound 0.316 µM
[10] = second compound 0.316 µM, first compound 1 µM
[11] = second compound 0.316 µM, first compound 3.16 µM
[12] = second compound 0.316 µM, first compound 10 µM
[13] = second compound 1 µM, first compound 0.0316 µM
[14] = second compound 1 µM, first compound 0.1 µM
[15] = second compound 1 µM, first compound 0.316 µM
[16] = second compound 1 µM, first compound 1 µM
[17] = second compound 1 µM, first compound 3.16 µM
[18] = second compound 1 µM, first compound 10 µM
[19] = second compound 3.16 µM, first compound 0.0316 µM
[20] = second compound 3.16 µM, first compound 0.1 µM
[21] = second compound 3.16 µM, first compound 0.316 µM
[22] = second compound 3.16 µM, first compound 1 µM
[23] = second compound 3.16 µM, first compound 3.16 µM
[24] = second compound 3.16 µM, first compound 10 µM
[25] = second compound 10 µM, first compound 0.0316 µM
[26] = second compound 10 µM, first compound 0.1 µM
[27] = second compound 10 µM, first compound 0.316 µM
[28] = second compound 10 µM, first compound 1 µM
[29] = second compound 10 µM, first compound 3.16 µM
[30] = second compound 10 µM, first compound 10 µM

CC1(C)CCC(CN2CCN(c3ccc(C(=O)NS(=O)(=O)c4ccc(NCC5CCOCC5)c([N+](=O)[O-])c4)c(Oc4cnc5[nH]ccc5c4)c3)CC2)=C(c2ccc(Cl)cc2)C1 + Cc1ccccc1N=Nc1ccc(NC(=O)c2ccnn2C)c(C)c1 was tested, and the IC50 (second compound 0.1 µM) was > 10 µM, the IC50 (second compound 0.316 µM) was > 10 µM and the IC50 (second compound 1 µM) was > 10 µM. For the same molecule, the IC50 (second compound 3.16 µM) was > 10 µM, the IC50 (second compound 10 µM) was > 10 µM and the viability, T/C [1] was 96.4%. It also gave a viability, T/C [2] of 99.5%, a viability, T/C [3] of 100% and a viability, T/C [4] of 79.4%. For the same molecule, the viability, T/C [5] was 88.2%, the viability, T/C [6] was 94.1% and the viability, T/C [7] was 110%. It also gave a viability, T/C [8] of 78.6%, a viability, T/C [9] of 102% and a viability, T/C [10] of 99.3%. For the same molecule, the viability, T/C [11] was 85.4%, the viability, T/C [12] was 90% and the viability, T/C [13] was 110%. The viability, T/C [14] was 88%, the viability, T/C [15] was 113% and the viability, T/C [16] was 92.9%. It also gave a viability, T/C [17] of 95.1%, a viability, T/C [18] of 128% and a viability, T/C [19] of 91.9%. For the same molecule, the viability, T/C [20] was 105%, the viability, T/C [21] was 87.5% and the viability, T/C [22] was 76.1%. The viability, T/C [23] was 78.3%, the viability, T/C [24] was 112% and the viability, T/C [25] was 102%. The viability, T/C [26] was 99.3%, the viability, T/C [27] was 98.4% and the viability, T/C [28] was 86%. For the same molecule, the viability, T/C [29] was 83% and the viability, T/C [30] was 93.3%.
In the case of CCN(c1cc(-c2ccc(CN3CCOCC3)cc2)cc(C(=O)NCc2c(C)cc(C)[nH]c2=O)c1C)C1CCOCC1 + Cc1ccccc1N=Nc1ccc(NC(=O)c2ccnn2C)c(C)c1, the IC50 (second compound 0.1 µM) is reported as > 3 µM, the IC50 (second compound 0.316 µM) is reported as > 3 µM and the IC50 (second compound 1 µM) is reported as > 3 µM. For the same molecule, the IC50 (second compound 3.16 µM) was > 3 µM, the IC50 (second compound 10 µM) was > 3 µM and the viability, T/C (second compound 0.1 µM, first compound 0.00949 µM) was 115%. The viability, T/C (second compound 0.1 µM, first compound 0.03 µM) was 111%, the viability, T/C (second compound 0.1 µM, first compound 0.0949 µM) was 117% and the viability, T/C (second compound 0.1 µM, first compound 0.3 µM) was 107%. It also gave a viability, T/C (second compound 0.1 µM, first compound 0.949 µM) of 118%, a viability, T/C (second compound 0.1 µM, first compound 3 µM) of 110% and a viability, T/C (second compound 0.316 µM, first compound 0.00949 µM) of 115%. It also gave a viability, T/C (second compound 0.316 µM, first compound 0.03 µM) of 118%, a viability, T/C (second compound 0.316 µM, first compound 0.0949 µM) of 106% and a viability, T/C (second compound 0.316 µM, first compound 0.3 µM) of 123%. For the same molecule, the viability, T/C (second compound 0.316 µM, first compound 0.949 µM) was 105%, the viability, T/C (second compound 0.316 µM, first compound 3 µM) was 107% and the viability, T/C (second compound 1 µM, first compound 0.00949 µM) was 117%. The viability, T/C (second compound 1 µM, first compound 0.03 µM) was 110%, the viability, T/C (second compound 1 µM, first compound 0.0949 µM) was 122% and the viability, T/C (second compound 1 µM, first compound 0.3 µM) was 122%. The viability, T/C (second compound 1 µM, first compound 0.949 µM) was 98%, the viability, T/C (second compound 1 µM, first compound 3 µM) was 88% and the viability, T/C (second compound 3.16 µM, first compound 0.00949 µM) was 99.3%. The viability, T/C (second compound 3.16 µM, first compound 0.03 µM) was 114%, the viability, T/C (second compound 3.16 µM, first compound 0.0949 µM) was 102% and the viability, T/C (second compound 3.16 µM, first compound 0.3 µM) was 148%. The viability, T/C (second compound 3.16 µM, first compound 0.949 µM) was 120%, the viability, T/C (second compound 3.16 µM, first compound 3 µM) was 108% and the viability, T/C (second compound 10 µM, first compound 0.00949 µM) was 96.5%. The viability, T/C (second compound 10 µM, first compound 0.03 µM) was 103%, the viability, T/C (second compound 10 µM, first compound 0.0949 µM) was 91.7% and the viability, T/C (second compound 10 µM, first compound 0.3 µM) was 111%. It also gave a viability, T/C (second compound 10 µM, first compound 0.949 µM) of 103% and a viability, T/C (second compound 10 µM, first compound 3 µM) of 118%.
COc1cc(Nc2ncc3c(n2)-c2ccc(Cl)cc2C(c2c(F)cccc2OC)=NC3)ccc1C(=O)O + Cc1ccccc1N=Nc1ccc(NC(=O)c2ccnn2C)c(C)c1 was tested, and the IC50 (second compound 0.1 µM) was > 10 µM, the IC50 (second compound 0.316 µM) was > 10 µM and the IC50 (second compound 1 µM) was 8.76 µM. For the same molecule, the IC50 (second compound 3.16 µM) was > 10 µM, the IC50 (second compound 10 µM) was > 10 µM and the viability, T/C [1] was 73.8%. For the same molecule, the viability, T/C [2] was 65.6%, the viability, T/C [3] was 77.2% and the viability, T/C [4] was 52.5%. For the same molecule, the viability, T/C [5] was 61%, the viability, T/C [6] was 50.9% and the viability, T/C [7] was 72.5%. The viability, T/C [8] was 67.1%, the viability, T/C [9] was 79.2% and the viability, T/C [10] was 65.9%. The viability, T/C [11] was 62.7%, the viability, T/C [12] was 53.2% and the viability, T/C [13] was 81.8%. For the same molecule, the viability, T/C [14] was 81%, the viability, T/C [15] was 74.4% and the viability, T/C [16] was 72%. It also gave a viability, T/C [17] of 85.5%, a viability, T/C [18] of 46.4% and a viability, T/C [19] of 87.3%. It also gave a viability, T/C [20] of 72.5%, a viability, T/C [21] of 66% and a viability, T/C [22] of 57.9%. It also gave a viability, T/C [23] of 68.9%, a viability, T/C [24] of 60.2% and a viability, T/C [25] of 65.3%. It also gave a viability, T/C [26] of 94.1%, a viability, T/C [27] of 65.7% and a viability, T/C [28] of 60.5%. For the same molecule, the viability, T/C [29] was 75.8% and the viability, T/C [30] was 53.8%.
In the case of Cn1ncnc1C1c2n[nH]c(=O)c3cc(F)cc(c23)NC1c1ccc(F)cc1 (stereo not given) + Cc1ccccc1N=Nc1ccc(NC(=O)c2ccnn2C)c(C)c1, the IC50 (second compound 0.1 µM) is reported as > 0.1 µM, the IC50 (second compound 0.316 µM) is reported as > 0.1 µM and the IC50 (second compound 1 µM) is reported as > 0.1 µM. For the same molecule, the IC50 (second compound 3.16 µM) was > 0.1 µM, the IC50 (second compound 10 µM) was > 0.1 µM and the viability, T/C (second compound 0.1 µM, first compound 0.000316 µM) was 118%. It also gave a viability, T/C (second compound 0.1 µM, first compound 0.001 µM) of 120%, a viability, T/C (second compound 0.1 µM, first compound 0.00316 µM) of 133% and a viability, T/C (second compound 0.1 µM, first compound 0.01 µM) of 109%. It also gave a viability, T/C [1] of 117%, a viability, T/C [2] of 116% and a viability, T/C (second compound 0.316 µM, first compound 0.000316 µM) of 124%. For the same molecule, the viability, T/C (second compound 0.316 µM, first compound 0.001 µM) was 127%, the viability, T/C (second compound 0.316 µM, first compound 0.00316 µM) was 109% and the viability, T/C (second compound 0.316 µM, first compound 0.01 µM) was 118%. The viability, T/C [7] was 121%, the viability, T/C [8] was 108% and the viability, T/C (second compound 1 µM, first compound 0.000316 µM) was 105%. For the same molecule, the viability, T/C (second compound 1 µM, first compound 0.001 µM) was 93.8%, the viability, T/C (second compound 1 µM, first compound 0.00316 µM) was 117% and the viability, T/C (second compound 1 µM, first compound 0.01 µM) was 117%. The viability, T/C [13] was 99.3%, the viability, T/C [14] was 114% and the viability, T/C (second compound 3.16 µM, first compound 0.000316 µM) was 96.1%. It also gave a viability, T/C (second compound 3.16 µM, first compound 0.001 µM) of 127%, a viability, T/C (second compound 3.16 µM, first compound 0.00316 µM) of 124% and a viability, T/C (second compound 3.16 µM, first compound 0.01 µM) of 122%. For the same molecule, the viability, T/C [19] was 97.5%, the viability, T/C [20] was 131% and the viability, T/C (second compound 10 µM, first compound 0.000316 µM) was 118%. For the same molecule, the viability, T/C (second compound 10 µM, first compound 0.001 µM) was 124%, the viability, T/C (second compound 10 µM, first compound 0.00316 µM) was 110% and the viability, T/C (second compound 10 µM, first compound 0.01 µM) was 94.5%. It also gave a viability, T/C [25] of 90.5% and a viability, T/C [26] of 82.9%.
With NS(=O)(=O)OCC1CC(n2ccc3c(NC4CCc5ccccc54)ncnc32)CC1O (stereo not given) + Cc1ccccc1N=Nc1ccc(NC(=O)c2ccnn2C)c(C)c1 the IC50 (second compound 0.1 µM) was > 10 µM, the IC50 (second compound 0.316 µM) was > 10 µM and the IC50 (second compound 1 µM) was > 10 µM. The IC50 (second compound 3.16 µM) was > 10 µM, the IC50 (second compound 10 µM) was > 10 µM and the viability, T/C [1] was 129%. For the same molecule, the viability, T/C [2] was 161%, the viability, T/C [3] was 118% and the viability, T/C [4] was 101%. For the same molecule, the viability, T/C [5] was 91.2%, the viability, T/C [6] was 82.5% and the viability, T/C [7] was 135%. For the same molecule, the viability, T/C [8] was 165%, the viability, T/C [9] was 112% and the viability, T/C [10] was 95.9%. For the same molecule, the viability, T/C [11] was 103%, the viability, T/C [12] was 86.3% and the viability, T/C [13] was 157%. The viability, T/C [14] was 132%, the viability, T/C [15] was 151% and the viability, T/C [16] was 88.2%. For the same molecule, the viability, T/C [17] was 80.1%, the viability, T/C [18] was 78.5% and the viability, T/C [19] was 157%. The viability, T/C [20] was 206%, the viability, T/C [21] was 111% and the viability, T/C [22] was 89.7%. The viability, T/C [23] was 89.1%, the viability, T/C [24] was 83.2% and the viability, T/C [25] was 128%. For the same molecule, the viability, T/C [26] was 132%, the viability, T/C [27] was 123% and the viability, T/C [28] was 94%. For the same molecule, the viability, T/C [29] was 77.4% and the viability, T/C [30] was 84.9%.
